13 compounds from ChEMBL document CHEMBL1142411, “Antileishmanial compounds from Cordia fragrantissima collected in Burma (Myanmar)” (J Nat Prod, 2008) can be followed below.

One assay has as its system Leishmania major. Put plainly: Antileishmanial activity against Leishmania major promastigotes after 48 hrs by MTT method. Format: functional, organism-based. Background: Formazan colour is commonly taken as a measure of viable cells.
For a further assay, the system named is Leishmania guyanensis. Kind of assay: Antileishmanial activity against Leishmania guyanensis promastigotes after 48 hrs by MTT method. It is filed as functional, organism-based.
The test system of a further assay is Leishmania panamensis. Put plainly: Antileishmanial activity against Leishmania panamensis promastigotes after 48 hrs by MTT method. Format: functional, organism-based.
Assay [1] can be described thus: Cytotoxicity against african green monkey COS7 cells by XTT method. Format: cell-based. Particulars: Chlorocebus aethiops, COS-7.
The next assay relates to Huh-7. Put plainly: Cytotoxicity against human HuH7 cells by XTT method. Format: functional, cell-based.

Structures are written as SMILES. Converted amounts (≈) assume the structure as drawn. Peptide text beside a SMILES is read from it. * marks the point of attachment. Cbz = O=C(OCc1ccccc1)* A value given as a limit tells only on which side of the number the result lay.

As for `C=C[C@@]1(C)Cc2c(O)ccc(O)c2C[C@H]1C(=C)C`, in the assay with Leishmania major, the IC50 came out at 4.5 µg/mL (≈ 18.4 µM).
For `CC1=C2C(=O)c3c(O)ccc(O)c3CC2(C)CCC1=O` (racemic), the IC50 worked out at 81.4 µg/mL (≈ 299 µM) with Leishmania major; 7 µg/mL (≈ 25.7 µM) with Leishmania guyanensis; 13 µg/mL (≈ 47.7 µM) in the assay with Leishmania panamensis; 51.7 µg/mL in assay [1]; 71.8 µg/mL with Huh-7.
Taken in the same sequence, the figures for `CC1(O)CCCC2(C)Cc3c(O)ccc(O)c3CC12` (racemic) were 2.7 µg/mL (≈ 10.3 µM), 3 µg/mL (≈ 11.4 µM), 1.8 µg/mL (≈ 6.86 µM), above 100 µg/mL and 41.7 µg/mL.
For `C/C(C=O)=C\CCC(C)(O)/C=C\c1cc(O)ccc1O` (racemic), the IC50 in the assay on Leishmania major is above 25 µg/mL; in assay [1], above 100 µg/mL; with Huh-7, above 100 µg/mL.
Turning to `CC1=C2C(=O)c3c(OC(=O)c4ccc(Br)cc4)ccc(OC(=O)c4ccc(Br)cc4)c3CC2(C)CCC1=O` (racemic), the IC50 was 23.5 µg/mL (≈ 36.8 µM) with Leishmania major, above 100 µg/mL in assay [1] and above 100 µg/mL with Huh-7.
Turning to `CC(=O)Oc1ccc(OC(C)=O)c2c1CC1(C)CCC(=O)C(C)=C1C2=O` (racemic), the IC50 with Leishmania major amounted to 80.4 µg/mL (≈ 226 µM); in assay [1], 50.7 µg/mL; in the assay with Huh-7, 65.5 µg/mL.
Taken in the same sequence, the figures for `C=C[C@@]1(C)Cc2c(OC(C)=O)ccc(OC(C)=O)c2C[C@H]1C(=C)C` [ACETYLCORDIAQUINOL C] were 1.4 µg/mL (≈ 4.26 µM), 20.1 µg/mL and 60.9 µg/mL.
Turning to `C/C(C=O)=C\CC/C(C)=C/Cc1cc(O)ccc1O` [ALLIODORIN], the IC50 with Leishmania major came to 7 µg/mL (≈ 26.9 µM); in the assay with Leishmania guyanensis, 2 µg/mL (≈ 7.68 µM); in the assay on Leishmania panamensis, 1.8 µg/mL (≈ 6.91 µM); in assay [1], 31.9 µg/mL; in the assay with Huh-7, 44.8 µg/mL.
As to `C[C@@H]1[C@H](O)[C@@H](C)/C=C/C=C/C=C/C=C/C=C/C=C/C=C/[C@H](O[C@@H]2O[C@H](C)[C@@H](O)[C@H](N)[C@@H]2O)C[C@@H]2O[C@](O)(C[C@@H](O)C[C@@H](O)[C@H](O)CC[C@@H](O)C[C@@H](O)CC(=O)O[C@H]1C)C[C@H](O)[C@H]2C(=O)O` [AMPHOTERICIN B], the IC50 in the assay with Leishmania major, in the assay on Leishmania guyanensis and with Leishmania panamensis was below 0.1 µg/mL in each case.
As for `CC1=CCC[C@@]2(C)CC3=C(C[C@@H]12)C(=O)C=CC3=O` [CORDIACHROME A], the figures for the IC50 (in the assay with Leishmania major; in assay [1]; in the assay on Huh-7) were 4.1 µg/mL (≈ 16.9 µM), 22.5 µg/mL and 61.1 µg/mL, respectively.
The corresponding values for `C=C1CCC[C@@]2(C)CC3=C(C[C@@H]12)C(=O)C=CC3=O` [CORDIACHROME B] are 2.5 µg/mL (≈ 10.3 µM), 14.6 µg/mL and 71.5 µg/mL.
`C=C[C@@]1(C)CC2=C(C[C@H]1C(=C)C)C(=O)C=CC2=O` [Cordiachrome C]: the IC50 in the assay on Leishmania major was 21.1 µg/mL (≈ 87.1 µM); in the assay on Leishmania guyanensis, 6 µg/mL (≈ 24.8 µM); in the assay on Leishmania panamensis, 5.5 µg/mL (≈ 22.7 µM).
`CC(C)C[C@@H](C=O)NC(=O)[C@H](CC(C)C)NC(=O)[C@H](CC(C)C)NC(=O)OCc1ccccc1` [MG-132] (Cbz-Leu-Leu-Leu-aldehyde): the IC50 (in assay [1]; with Huh-7) was below 10 µM each time.

For orientation: IC50 means the midpoint of a concentration-inhibition curve.
